In the assay the target is T1, renin (Homo sapiens, UniProt P00797).
T1 sequence (P00797 67-406): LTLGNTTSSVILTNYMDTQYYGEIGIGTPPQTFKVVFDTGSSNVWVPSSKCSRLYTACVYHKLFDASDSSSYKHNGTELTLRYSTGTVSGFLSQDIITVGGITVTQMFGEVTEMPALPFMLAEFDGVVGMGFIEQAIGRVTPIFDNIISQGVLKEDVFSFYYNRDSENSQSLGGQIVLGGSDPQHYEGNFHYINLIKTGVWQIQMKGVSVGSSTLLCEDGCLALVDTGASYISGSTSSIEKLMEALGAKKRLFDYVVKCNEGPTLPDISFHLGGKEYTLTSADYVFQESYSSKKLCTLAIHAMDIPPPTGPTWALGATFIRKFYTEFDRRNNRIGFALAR
In words: renin inhibitory potency. Format: biochemical. Conditions: 2S,5S product compared with the 2R,5R isomer separated by HPLC. From the text: The activity of the compounds of the present invention as inhibitors of the angiotensinogen-cleaving activity of renin may be determined by studying (1) their ability to inhibit the angiotensinogen-cleaving activity of renin in vitro and (2) their ability to antagonize the exogenous renin-induced pressor response in vivo.

For `CCCC[C@H](NC(=O)[C@H](Cc1ccccc1)NC(=O)N1CCOCC1)C(=O)N[C@@H](CC1CCCCC1)C(=O)C(F)(F)[C@@H](CC(C)C)C(=O)OCC` [Example 10, Ethyl (2S,5S)-2-isobutyl-3,3-difluoro-4-keto-5-N-(N-[morpholinocarbonyl-L-phenylalanyl]-L-norleucyl)-amino-6-cyclohexylhexanoate], the renin inhibitory potency entry was “more active”.

Source of the values: patent publication US4855303A, “Fluorine containing renin inhibitors” (Pfizer Inc., priority 1988, dated 1989).
